Laboratory results from ChEMBL document CHEMBL1909046, “DrugMatrix in vitro pharmacology data”.

How the values were obtained:
[1] = target: T1, B2 bradykinin receptor (Homo sapiens, UniProt P30411); assay type: cell membranes, Membrane; conditions: chem-1; also: in other assays of this panel Not Active means under 50% inhibition at 10 µM
T1 sequence (P30411 whole entry): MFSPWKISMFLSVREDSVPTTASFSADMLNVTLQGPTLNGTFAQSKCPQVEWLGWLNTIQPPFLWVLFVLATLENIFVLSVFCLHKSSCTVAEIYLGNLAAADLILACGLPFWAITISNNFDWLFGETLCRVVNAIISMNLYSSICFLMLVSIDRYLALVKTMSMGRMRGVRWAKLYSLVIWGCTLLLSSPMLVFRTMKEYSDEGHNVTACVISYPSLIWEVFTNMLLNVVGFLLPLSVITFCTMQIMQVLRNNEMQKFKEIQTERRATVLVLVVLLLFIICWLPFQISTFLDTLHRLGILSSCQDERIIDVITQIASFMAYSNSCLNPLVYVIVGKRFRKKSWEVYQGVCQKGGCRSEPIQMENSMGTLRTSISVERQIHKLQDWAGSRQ

[2] = DRUGMATRIX: Tumor Necrosis Factor (TNF), Non-Selective radioligand binding (ligand: [125I] TNF-alpha); assay type: cell membranes, Membrane; conditions: u-937; Not Active = under 50% inhibition at 10 µM
[3] = target: Prostaglandin G/H synthase 1 (Homo sapiens, UniProt P23219); test: biochemical; assay type: tissue-based, Platelet;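 also: inhibition of COX-1 enzyme activity, with arachidonic acid supplied as substrate; in other assays of this panel Not Active means under 50% inhibition at 10 µM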
Sequence of Prostaglandin G/H synthase 1 (P23219 whole entry): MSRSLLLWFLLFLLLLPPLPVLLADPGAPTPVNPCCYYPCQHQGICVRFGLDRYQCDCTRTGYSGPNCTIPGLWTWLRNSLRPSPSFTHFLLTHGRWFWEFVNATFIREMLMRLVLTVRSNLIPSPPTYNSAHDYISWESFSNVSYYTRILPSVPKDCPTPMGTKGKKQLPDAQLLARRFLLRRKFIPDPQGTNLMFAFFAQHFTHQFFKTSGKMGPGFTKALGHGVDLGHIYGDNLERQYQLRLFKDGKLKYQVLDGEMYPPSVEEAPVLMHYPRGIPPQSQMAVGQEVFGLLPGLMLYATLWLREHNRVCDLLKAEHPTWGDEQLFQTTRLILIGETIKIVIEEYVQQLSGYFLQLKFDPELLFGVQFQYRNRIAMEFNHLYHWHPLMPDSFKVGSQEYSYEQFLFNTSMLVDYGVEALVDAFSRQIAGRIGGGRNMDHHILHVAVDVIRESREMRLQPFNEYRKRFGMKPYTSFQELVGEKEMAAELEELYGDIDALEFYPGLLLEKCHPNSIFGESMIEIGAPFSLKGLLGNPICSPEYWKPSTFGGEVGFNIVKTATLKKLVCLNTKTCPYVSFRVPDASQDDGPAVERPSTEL

[4] = target: T2, Polyunsaturated fatty acid lipoxygenase ALOX15 (Oryctolagus cuniculus, UniProt P12530); test: biochemical; assay type: tissue-based, Reticulocytes;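 also: inhibition of 15-lipoxygenase enzyme activity measured with linoleic acid as the substrate; in other assays of this panel Not Active means under 50% inhibition at 10 µM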
T2 sequence (P12530 whole entry): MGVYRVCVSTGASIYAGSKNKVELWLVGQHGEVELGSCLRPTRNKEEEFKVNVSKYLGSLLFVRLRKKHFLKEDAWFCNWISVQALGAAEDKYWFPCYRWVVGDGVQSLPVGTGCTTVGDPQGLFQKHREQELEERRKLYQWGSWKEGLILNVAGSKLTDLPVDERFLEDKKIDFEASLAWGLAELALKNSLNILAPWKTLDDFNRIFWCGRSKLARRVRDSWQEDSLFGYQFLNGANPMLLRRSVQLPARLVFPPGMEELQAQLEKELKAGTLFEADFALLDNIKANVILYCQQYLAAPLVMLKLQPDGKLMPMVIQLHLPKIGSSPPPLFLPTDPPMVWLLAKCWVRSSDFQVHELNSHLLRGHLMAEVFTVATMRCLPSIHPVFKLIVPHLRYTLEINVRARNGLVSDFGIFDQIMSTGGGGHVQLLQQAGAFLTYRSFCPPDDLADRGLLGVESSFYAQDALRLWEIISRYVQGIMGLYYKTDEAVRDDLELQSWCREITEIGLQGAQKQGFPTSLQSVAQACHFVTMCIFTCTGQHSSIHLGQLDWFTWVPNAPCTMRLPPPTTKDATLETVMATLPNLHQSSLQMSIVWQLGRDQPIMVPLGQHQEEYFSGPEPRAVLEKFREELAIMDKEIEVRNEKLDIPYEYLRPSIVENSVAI

[5] = target: T3, Nitric oxide synthase, inducible (Mus musculus, UniProt P29477); set-up: species or system Escherichia coli;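 also: inhibition of iNOS enzyme activity measured with L-arginine as substrate; in other assays of this panel Not Active means under 50% inhibition at 10 µM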
T3 sequence (P29477 whole entry): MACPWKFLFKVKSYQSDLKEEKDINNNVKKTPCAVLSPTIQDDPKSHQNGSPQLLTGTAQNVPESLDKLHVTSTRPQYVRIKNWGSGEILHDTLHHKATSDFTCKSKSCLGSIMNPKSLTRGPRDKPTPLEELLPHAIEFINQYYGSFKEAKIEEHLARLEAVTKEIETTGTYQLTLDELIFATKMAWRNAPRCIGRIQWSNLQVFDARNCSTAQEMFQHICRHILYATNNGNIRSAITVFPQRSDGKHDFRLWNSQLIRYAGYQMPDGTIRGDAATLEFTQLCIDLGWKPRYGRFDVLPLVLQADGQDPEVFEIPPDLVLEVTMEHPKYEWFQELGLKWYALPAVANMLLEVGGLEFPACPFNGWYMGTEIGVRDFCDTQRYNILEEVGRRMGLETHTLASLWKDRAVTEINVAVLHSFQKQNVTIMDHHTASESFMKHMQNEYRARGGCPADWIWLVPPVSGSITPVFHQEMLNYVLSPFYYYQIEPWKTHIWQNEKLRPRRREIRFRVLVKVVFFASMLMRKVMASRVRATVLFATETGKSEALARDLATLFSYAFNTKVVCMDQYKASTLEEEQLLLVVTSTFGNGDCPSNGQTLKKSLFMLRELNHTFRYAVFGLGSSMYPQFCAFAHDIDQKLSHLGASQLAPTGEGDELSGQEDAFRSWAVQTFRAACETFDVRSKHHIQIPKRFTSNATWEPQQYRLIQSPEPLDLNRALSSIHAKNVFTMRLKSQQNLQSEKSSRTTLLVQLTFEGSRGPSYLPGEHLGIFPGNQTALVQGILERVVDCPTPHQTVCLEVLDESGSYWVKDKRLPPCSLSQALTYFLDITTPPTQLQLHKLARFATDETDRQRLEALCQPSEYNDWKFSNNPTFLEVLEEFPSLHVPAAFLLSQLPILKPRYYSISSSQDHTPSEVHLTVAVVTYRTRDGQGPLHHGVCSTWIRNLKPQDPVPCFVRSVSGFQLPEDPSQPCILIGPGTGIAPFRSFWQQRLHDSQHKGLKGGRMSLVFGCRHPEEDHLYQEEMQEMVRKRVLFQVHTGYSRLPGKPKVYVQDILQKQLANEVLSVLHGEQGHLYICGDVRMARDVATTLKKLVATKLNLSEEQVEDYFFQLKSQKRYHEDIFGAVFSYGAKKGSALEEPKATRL

[6] = DRUGMATRIX: Purinergic P2X radioligand binding (ligand: [3H] alpha, beta-Methylene-ATP); assay type: cell membranes, Oryctolagus cuniculus, New Zealand albino, Urinary bladder, Membrane; conditions: Not Active = under 50% inhibition at 10 µM
[7] = target: T4, Cytochrome P450 1A2 (Homo sapiens, UniProt P05177); conditions: bti-tn-5b1-4; also: in other assays of this panel Not Active means under 50% inhibition at 10 µM
T4 sequence (P05177 whole entry): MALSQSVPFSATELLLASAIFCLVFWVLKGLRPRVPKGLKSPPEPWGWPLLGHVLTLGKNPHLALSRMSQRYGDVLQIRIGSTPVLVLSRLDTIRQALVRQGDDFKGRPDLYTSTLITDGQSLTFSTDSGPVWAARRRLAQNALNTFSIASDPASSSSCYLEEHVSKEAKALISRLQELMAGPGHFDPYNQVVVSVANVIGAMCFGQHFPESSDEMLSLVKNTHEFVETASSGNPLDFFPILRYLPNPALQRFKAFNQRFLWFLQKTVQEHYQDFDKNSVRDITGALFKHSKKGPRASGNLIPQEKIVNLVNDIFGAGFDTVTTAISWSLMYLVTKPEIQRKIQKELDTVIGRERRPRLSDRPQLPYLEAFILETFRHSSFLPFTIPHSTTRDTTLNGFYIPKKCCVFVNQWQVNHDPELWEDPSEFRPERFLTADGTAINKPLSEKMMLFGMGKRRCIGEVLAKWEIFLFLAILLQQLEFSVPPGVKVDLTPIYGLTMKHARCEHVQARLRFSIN

Row | Molecule | IC50 [1] | IC50 [2] | Ki [2] | IC50 ([3]; platelet) | IC50 ([4]; reticulocytes) | IC50 [5] | IC50 [6] | Ki [6] | IC50 [7] | Ki [7] | IC50 ([3]; read-out: IC50) [nM] | IC50 ([4]; read-out: IC50) [nM] | Ki [1] | Ki ([3]; platelet) | Ki ([4]; reticulocytes) | Ki [5]
1 | CCCCC1C(=O)N(c2ccccc2)N(c2ccccc2)C1=O [PHENYLBUTAZONE] | Not Active | Not Active | Not Active | Not Active | Not Active | Not Active | Not Active | Not Active | Not Active | Not Active | – | – | – | – | – | –
2 | [N-]=[N+]=CC(=O)OC[C@H](N)C(=O)O [AZASERINE] | Not Active | Not Active | Not Active | Not Active | Not Active | Not Active | Not Active | Not Active | Not Active | Not Active | – | – | – | – | – | –
3 | O=C(/C=C/c1ccc(O)c(O)c1)OCCc1ccccc1 [CAFFEIC ACID PHENETHYL ESTER] | Not Active | Not Active | Not Active | – | Not Active | Not Active | Not Active | Not Active | Not Active | Not Active | 833 | – | – | – | – | –
4 | OCCO [ETHYLENE GLYCOL] | Not Active | Not Active | Not Active | Not Active | Not Active | Not Active | Not Active | Not Active | Not Active | Not Active | – | – | – | – | – | –
5 | C[C@H]([C@](O)(Cn1cncn1)c1ccc(F)cc1F)S(C)(=O)=O [GENACONAZOLE] | Not Active | Not Active | Not Active | Not Active | Not Active | Not Active | Not Active | Not Active | Not Active | Not Active | – | – | – | – | – | –
6 | Nc1nc(N)nc(NC2CC2)n1 [CYROMAZINE] | Not Active | Not Active | Not Active | Not Active | Not Active | Not Active | Not Active | Not Active | Not Active | Not Active | – | – | – | – | – | –
7 | CC[C@H](C)C(=O)O[C@H]1C[C@H](O)C=C2C=C[C@H](C)[C@H](CC[C@@H](O)C[C@@H](O)CC(=O)O)[C@H]21 [PRAVASTATIN] | Not Active | Not Active | Not Active | Not Active | Not Active | Not Active | Not Active | Not Active | Not Active | Not Active | – | – | – | – | – | –
8 | CC(C)(C)c1ccc(S(=O)(=O)/C=C/C#N)cc1 [BAY-11-7085] | Not Active | Not Active | Not Active | Not Active | Not Active | Not Active | Not Active | Not Active | Not Active | Not Active | – | – | – | – | – | –
9 | CCC(=O)O[C@H]1[C@H](O[C@@H]2[C@@H](C)[C@H](O[C@H]3C[C@@](C)(OC)[C@@H](O)[C@H](C)O3)[C@@H](C)C(=O)O[C@H](CC)[C@@](C)(O)[C@H](O)[C@@H](C)C(=O)[C@H](C)C[C@@]2(C)O)O[C@H](C)C[C@@H]1N(C)C [ERYTHROMYCIN PROPIONATE] | Not Active | Not Active | Not Active | Not Active | Not Active | Not Active | Not Active | Not Active | Not Active | Not Active | – | – | – | – | – | –
10 | C#C[C@]1(O)CC[C@H]2[C@@H]3CCc4cc(O)ccc4[C@H]3CC[C@@]21C [ETHINYL ESTRADIOL] | Not Active | Not Active | Not Active | Not Active | – | Not Active | Not Active | Not Active | Not Active | Not Active | – | 5680 | – | – | – | –
11 | Nc1nc(Cl)nc2c1ncn2[C@H]1C[C@H](O)[C@@H](CO)O1 [CLADRIBINE] | Not Active | Not Active | Not Active | Not Active | Not Active | Not Active | Not Active | Not Active | Not Active | Not Active | – | – | – | – | – | –
12 | CC(C)(Sc1cc(C(C)(C)C)c(O)c(C(C)(C)C)c1)Sc1cc(C(C)(C)C)c(O)c(C(C)(C)C)c1 [PROBUCOL] | Not Active | Not Active | Not Active | Not Active | Not Active | Not Active | Not Active | Not Active | Not Active | Not Active | – | – | – | – | – | –
13 | CN1C[C@H](C(=O)N[C@]2(C)O[C@@]3(O)[C@@H]4CCCN4C(=O)[C@H](Cc4ccccc4)N3C2=O)C[C@@H]2c3cccc4[nH]cc(c34)C[C@H]21 [DIHYDROERGOTAMINE] | Not Active | Not Active | Not Active | Not Active | Not Active | Not Active | Not Active | Not Active | Not Active | Not Active | – | – | – | – | – | –
14 | CC(CCc1ccc(O)cc1)NCCc1ccc(O)c(O)c1 (centres undefined) [DOBUTAMINE] | Not Active | Not Active | Not Active | Not Active | – | Not Active | Not Active | Not Active | Not Active | Not Active | – | 599 | – | – | – | –
15 | POLYVINYL ALCOHOL | Not Active | Not Active | Not Active | Not Active | Not Active | Not Active | Not Active | Not Active | Not Active | Not Active | – | – | Not Active | Not Active | Not Active | Not Active
